Measured values from the CombiSolv-Exp solvation set (Vermeire and Green 2021).

Assay: solvent given as SMILES

C(=Cc1ccccc1)c1ccccc1
Details | solvation free energy, 298 K [kcal/mol]
in C1CCOC1 | -11.8
in C1COCCO1 | -11.5
in CC(C)(C)O | -9.66
in CC(C)CC(C)(C)C | -9.92
in CC(C)CC(C)O | -9.81
in CC(C)CCCC(C)CCO | -10
in CC(C)CCO | -9.88
in CC(C)CO | -9.73
in CC(C)O | -9.74
in CCC(C)(C)O | -9.84
in CCC(C)=O | -11.5
in CCC(C)O | -9.81
in CCCC(C)CO | -9.92
in CCCC(C)O | -9.91
in CCCCC(CC)CO | -10
in CCCCCC | -10.2
in CCCCCCC | -10.2
in CCCCCCCC | -10.2
in CCCCCCCCCC | -10.2
in CCCCCCCCCCO | -10.2
in CCCCCCCCO | -10.2
in CCCCCCCO | -10.2
in CCCCCCO | -10.1
in CCCCCO | -10.1
in CCCCO | -10
in CCCCOC(C)=O | -11.2
in CCCCOCCCC | -10.6
in CCCO | -9.97
in CCO | -9.99
in CCOC(C)=O | -11.2
in CCOCC | -11
in CN(C)C=O | -11.6
in CO | -9.92
in COC(C)(C)C | -10.9
in COC(C)=O | -11.2
in Cc1ccc(C)cc1 | -11.3
in Cc1cccc(C)c1 | -11.2
in Cc1ccccc1C | -11.3
in ClC(Cl)(Cl)Cl | -11.2
in Clc1ccccc1 | -11.5
in O | -3.79

CCOc1ccc(NC(C)=O)cc1
Details | solvation free energy, 298 K [kcal/mol]
in C1CCOC1 | -13.7
in CCCCCCCCO | -13.1
in CCCCCO | -13
in CCCCO | -13.2
in CCCO | -13.2
in CCO | -13.3
in CCOC(C)=O | -12.8
in CO | -13.6
in O | -10.9

Cc1cccc(C(=O)O)c1
Details | solvation free energy, 298 K [kcal/mol]
in C1CCOC1 | -10.5
in C1COCCO1 | -10.1
in CC(C)(C)O | -10.2
in CC(C)CC(C)O | -10
in CC(C)CCO | -9.93
in CC(C)CO | -9.91
in CC(C)O | -10.1
in CC(C)OCCO | -10.1
in CC(O)COC(C)(C)C | -9.97
in CCC(C)CO | -9.88
in CCC(C)O | -10.1
in CCCC(C)CO | -9.89
in CCCC(C)O | -10
in CCCCCCCCCCO | -9.65
in CCCCCCCCO | -9.87
in CCCCCCCO | -9.91
in CCCCCCO | -9.94
in CCCCCO | -9.99
in CCCCO | -10
in CCCCOC(C)=O | -9.69
in CCCCOCCO | -10
in CCCO | -10.3
in CCCOCCO | -10.1
in CCO | -10.2
in CCOC(C)=O | -9.9
in CCOCC | -10
in CCOCCO | -10.1
in CO | -10.3
in COC(C)=O | -9.99
in COC(C)CCO | -10.1
in O | -6.79

CC(C)CCO
Details | solvation free energy, 298 K [kcal/mol]
in Brc1ccccc1 | -5.27
in C1CCOC1 | -6.32
in CC#N | -5.58
in CC(C)O | -6.51
in CCCCCC | -4.05
in CCCCCCC | -3.96
in CCCCCCCC | -3.98
in CCCCCCCCCCO | -6.18
in CCCCCCCCO | -6.08
in CCCCOC(C)=O | -5.78
in CO | -6.77
in Cc1ccc(C)cc1 | -4.93
in Cc1cccc(C)c1 | -4.93
in Cc1ccccc1C | -4.94
in Clc1ccccc1 | -5.13
in O | -4.41
in [2H]O[2H] | -4.43

CNC(=O)Oc1cccc2c1OC(C)(C)C2
Details | solvation free energy, 298 K [kcal/mol]
in O | -9.61

C=CCC=CC
Details | solvation free energy, 298 K [kcal/mol]
in C=CCCCCCCCCCCCCCC | -3.46
in O | 1.09

CCCCCCCNCc1ccc(C)cc1
Details | solvation free energy, 298 K [kcal/mol]
in O | -5.01

CN(C)CC=C(c1ccc(Br)cc1)c1cccnc1
Details | solvation free energy, 298 K [kcal/mol]
in O | -11.9

Cc1nc(NS(=O)(=O)c2ccc(N)cc2)oc1C
Details | solvation free energy, 298 K [kcal/mol]
in O | -17.7

Cc1ccccn1
Details | solvation free energy, 298 K [kcal/mol]
in CC(C)(C)O | -5.91
in CC(C)CC(C)(C)C | -4.69
in CC(C)CO | -6.19
in CC(C)O | -5.88
in CCC(C)O | -6
in CCOC(C)=O | -5.67
in O | -4.63

ClC(Cl)C(Cl)Cl
Details | solvation free energy, 298 K [kcal/mol]
in CC(C)=O | -6.28
in CCCCCCCCCCCCCCCC | -5.21
in CCCCCCCCO | -5.84
in ClC(Cl)(Cl)Cl | -5.93
in ClCCCl | -6.37
in O | -2.45
in [2H]O[2H] | -2.59

CCCCCCCCCC(=O)O
Details | solvation free energy, 298 K [kcal/mol]
in O | -5.28

c1ccc2ncccc2c1
Details | solvation free energy, 298 K [kcal/mol]
in CC(C)CC(C)(C)C | -7.14
in O | -5.72

Nc1ccc([N+](=O)[O-])cc1
Details | solvation free energy, 298 K [kcal/mol]
in CC(C)CC(C)(C)C | -8.11
in CC(C)CO | -11.6
in CCC(C)O | -11.9
in CCCCOC(C)=O | -12.7
in CCCCOCCCC | -11.1
in COC(C)=O | -13.2

CC1=CCC(C(C)C)=CC1
Details | solvation free energy, 298 K [kcal/mol]
in O | -0.03

CCCCCNCc1ccc(C)cc1
Details | solvation free energy, 298 K [kcal/mol]
in O | -5.21

BrC1CCCCC1
Details | solvation free energy, 298 K [kcal/mol]
in O | -0.57

CN1CCOCC1
Details | solvation free energy, 298 K [kcal/mol]
in O | -6.32

CCC(=O)CC(C)=O
Details | solvation free energy, 298 K [kcal/mol]
in O | -4.79

Cc1ccc2cc(C)ccc2c1
Details | solvation free energy, 298 K [kcal/mol]
in CCCCCCCCC=CCCCCCCCC(=O)OCC(COC(=O)CCCCCCCC=CCCCCCCCC)OC(=O)CCCCCCCC=CCCCCCCCC | -8.29
in CCCCCCCO | -8.28
in CCCCCCO | -8.36
in CCCCCO | -8.49
in CCCCO | -8.59
in CCO | -8.85
in O | -2.37

CC1=CCCCC1
Details | solvation free energy, 298 K [kcal/mol]
in O | 0.66

Cc1c(C(=O)O)cc([N+](=O)[O-])cc1[N+](=O)[O-]
Details | solvation free energy, 298 K [kcal/mol]
in C1CCOC1 | -17.5
in C1COCCO1 | -17.5
in CC(C)(C)O | -16
in CC(C)CCO | -15.8
in CC(C)CO | -15.7
in CC(C)O | -16.2
in CCC(C)O | -16.1
in CCCC(C)O | -15.9
in CCCCCCCCCCO | -15.3
in CCCCCCCCO | -15.6
in CCCCCCCO | -15.9
in CCCCCCO | -15.8
in CCCCCO | -16
in CCCCO | -16.1
in CCCCOC(C)=O | -16.2
in CCCO | -16.2
in CCOC(C)=O | -16.4
in COC(C)=O | -16.7
in O | -13.6

C=CC=C
Details | solvation free energy, 298 K [kcal/mol]
in C1CCC2CCCCC2C1 | -2.17
in C1COCCO1 | -2.03
in C=Cc1ccccc1 | -2.36
in CC1COC(=O)O1 | -1.97
in CC#N | -2.15
in CC(=O)N(C)C | -2.56
in CC(C)(C)O | -2.07
in CC(C)=O | -2.74
in CC(C)CCO | -2.09
in CC(C)CO | -2.06
in CC(C)O | -2.09
in CCC(C)(C)O | -2.16
in CCC(C)CO | -2.06
in CCC(C)O | -2.07
in CCC(O)CC | -2.09
in CCCC(C)O | -2.07
in CCCCCCC | -2.67
in CCCCCCCCCCCCCCCC | -2.1
in CCCCCO | -2.11
in CCCCO | -2.11
in CCCO | -2.16
in CCOC(C)=O | -2.84
in CCOCC | -2.72
in CN1CCCC1=O | -2.36
in CN(C)C=O | -2.29
in CN(C)P(=O)(N(C)C)N(C)C | -2.46
in CO | -2.14
in COC(C)=O | -2.26
in COCCOCCOCCOC | -2.05
in CS(C)=O | -1.8
in Cc1ccc(C)cc1 | -2.45
in Cc1cccc(C)c1 | -2.48
in Cc1ccccc1C | -2.46
in ClCCl | -2.83
in Nc1ccccc1 | -2.06
in O | 0.6
in OCCCOCCCO | -1.73
in OCCO | -1.35
in OCc1ccccc1 | -1.95

CCCCCCCOC(C)=O
Details | solvation free energy, 298 K [kcal/mol]
in NC=O | -4.84
in O | -2.07

CCCOCCO
Details | solvation free energy, 298 K [kcal/mol]
in O | -6.4

FC(F)(F)Br
Details | solvation free energy, 298 K [kcal/mol]
in O | 1.79

CNC(=O)Oc1cccc2ccccc12
Details | solvation free energy, 298 K [kcal/mol]
in CCCCCCCCC=CCCCCCCCC(=O)OCC(COC(=O)CCCCCCCC=CCCCCCCCC)OC(=O)CCCCCCCC=CCCCCCCCC | -12.6

CCNc1nc(NC(C)C)nc(OC)n1
Details | solvation free energy, 298 K [kcal/mol]
in O | -10.2

O=C(O)C=Cc1ccccc1
Details | solvation free energy, 298 K [kcal/mol]
in O | -8.38

O=C(OC1CCCCC1)c1ccccc1C(=O)OC1CCCCC1
Details | solvation free energy, 298 K [kcal/mol]
in O | -9.07

CCCCCc1ccccc1
Details | solvation free energy, 298 K [kcal/mol]
in O | -0.23

CCC(C)(C)CC
Details | solvation free energy, 298 K [kcal/mol]
in C=CCCCCCCCCCCCCCC | -3.89

COC(=O)c1ccc(Cl)c([N+](=O)[O-])c1
Details | solvation free energy, 298 K [kcal/mol]
in CN(C)C=O | -11.6
in O | -6.89

CCOC(C)(C)C
Details | solvation free energy, 298 K [kcal/mol]
in C1CCCCC1 | -4.12
in CC(=O)N(C)C | -3.53
in CCCCCC | -4.07
in CCCCCCC | -3.98
in CCCCCCCCO | -3.67
in CCCCN(C=O)CCCC | -3.6
in CCN1CCCC1=O | -3.42
in CCN(CC)C(C)=O | -3.66
in CCNC(C)=O | -3.49
in CCNC=O | -3.38
in CCOCC | -4.22
in CN1CCCCC1=O | -3.44
in CN(C)C=O | -3.31
in CNC(C)=O | -3.4
in CNC=O | -3.21
in CO | -4.07
in O | -1.61
